# Data: patent publication US20230065953A1, “NOVEL HETEROARYL-TRIAZOLE COMPOUNDS AS PESTICIDES” (Bayer Aktiengesellschaft, priority 2019, published 2023)
# Key:
# Assay type in all cases: in vivo
# [1] = system: Rhipicephalus microplus larvae (strain Parkhurst, resistant against synthetic pyrethroids); assay: Rhipicephalus (Boophilus) microplus in-vitro contact test, larval cattle tick; conditions: 5 μg/cm^2 (=500 g/ha), after 48 hours, read-out: efficacy (larvae dead or moribund)
# Description: Rhipicephalus (Boophilus) Microplus—In-Vitro Contact Tests Larval Cattle Tick (Strain Parkhurst, Resistant Against Synthetic Pyrethroids)
# (§1) 9 mg compound is solved in 1 mL acetone and diluted with acetone to the desired concentration. 250 μL of the test solution is filled in 25 mL glass test tubes and homogeneously distributed on the inner walls by rotation and tilting on a shaking device (2 h at 30 rpm). With a compound concentration of 900 ppm, an inner surface of 44.7 cm^2 and a homogeneous distribution, a dose of 5 μg/cm^2 is achieved.
# After the solvent has evaporated, each test tube is filled with 20-50 cattle tick larvae (Rhipicephalus microplus), closed with a perforated lid and incubated in a horizontal position at 85% relative humidity and 27° C. in an incubator. After 48 hours efficacy is determined. The larvae are patted on the ground of the tubes and negative geotactic behavior is recorded.
# An efficacy of 100% means all larvae are dead or moribund; 0% means no larvae are dead or moribund.
# [2] = system: adult engorged female ticks (Rhipicephalus microplus); assay: Rhipicephalus (Boophilus) microplus injection test; conditions: 168 h, 4 μg/animal, egg deposition after 7 days, read-out: efficacy (infertile eggs)
# Description: Rhipicephalus (Boophilus) Microplus—Injection Test
# (§2) Solvent: dimethyl sulfoxide
# To produce a suitable preparation of active compound, 10 mg of active compound are dissolved in 0.5 mL solvent, and the concentrate is diluted with solvent to the desired concentration.
# Five adult engorged female ticks (Rhipicephalus microplus) are injected with 1 μL compound solution into the abdomen. The ticks are transferred into replica plates and incubated in a climate chamber.
# After 7 days egg deposition of fertile eggs is monitored. Eggs where fertility is not visible are stored in a climate chamber till hatching after about 42 days. An efficacy of 100% means all eggs are infertile; 0% means all eggs are fertile.
# [3] = system: larvae of the banded cucumber beetle (Diabrotica balteata); assay: Diabrotica balteata spray test; conditions: 168 h, 100 g/ha (=32 μg/well), wheat seeds, after 7 days, read-out: efficacy (seedling growth)
# Description: Diabrotica Balteata—Spray Test
# • Solvent: 78.0 parts by weight of acetone • 1.5 parts by weight of dimethylformamide • Emulsifier: alkylarylpolyglycol ether
# Further test concentrations are prepared by dilution with emulsifier containing water.
# Soaked wheat seeds (Triticum aestivum) are placed in a multiple well plate filled with agar and some water and are incubated for 1 day to germinate (5 seeds per well). The germinated wheat seeds are sprayed with a test solution containing the desired concentration of the active ingredient. Afterwards each unit is infected with 10-20 larvae of the banded cucumber beetle (Diabrotica balteata).
# After 7 days efficacy in % is determined.
# [4] = system: green peach aphid (Myzus persicae); assay: Myzus persicae oral test; conditions: 120 h
# Description: Myzus persicae—oral test • Solvent: 100 parts by weight acetone
# To produce a suitable preparation of active compound, 1 part by weight of active compound is mixed with the stated amount of solvent, and the concentrate is diluted with water to the desired concentration. 50 μL compound solution is filled in microtiter plates and 150 μL IPL41 insect medium (33%+15% sugar) is added to obtain a total volume of 200 μL per well. Afterwards the plates are sealed with parafilm through which a mixed population of the green peach aphid (Myzus persicae) can suck on the compound preparation.
# (§3) After 5 days mortality in % is determined. 100% means all aphids have been killed and 0% means none of the aphids have been killed.
# [5] = system: fall armyworm larvae (Spodoptera frugiperda); assay: Spodoptera frugiperda spray test (maize leaf sections); conditions: 168 h
# Description: Spodoptera frugiperda—Spray Test • Solvent: 78.0 parts by weight acetone • 1.5 parts by weight dimethylformamide • Emulsifier: alkylarylpolyglycol ether
# (§4) To produce a suitable preparation of active compound, 1 part by weight of active compound is mixed with the stated amount of solvents and is diluted with water, containing an emulsifier concentration of 1000 ppm, to the desired concentration. Further test concentrations are prepared by dilution with emulsifier containing water.
# Maize (Zea mays) leaf sections are sprayed with a preparation of the active ingredient of the desired concentration. Once dry, the leaf sections are infested with fall armyworm larvae (Spodoptera frugiperda).
# After 7 days mortality in % is determined. 100% means all caterpillars have been killed and 0% means none of the caterpillars have been killed.
# [6] = system: adult cat fleas (Ctenocephalides felis); assay: Ctenocephalides felis in-vitro contact test, adult cat flea; conditions: 5 μg/cm^2 (=500 g/ha), after 48 hours
# Description: Ctenocephalides felis—In-Vitro Contact Tests Adult Cat Flea
# as §1
# After the solvent has evaporated, each test tube is filled with 5-10 adult cat fleas (Ctenocephalides felis), closed with a perforated lid and incubated in a lying position at room temperature and relative humidity. After 48 hours efficacy is determined. The fleas are patted on the ground of the tubes and are incubated on a heating plate at 45-50° C. for at most 5 minutes. Immotile or uncoordinated moving fleas, which are not able to escape the heat by climbing upwards, are marked as dead or moribund.
# An efficacy of 100% means all fleas are dead or moribund; 0% means no fleas are dead or moribund.
# [7] = system: green peach aphid (Myzus persicae); assay: Myzus persicae spray test; conditions: foliar, 120 h, Chinese cabbage leaf disks, after 5 days
# Description: Myzus persicae—Spray Test • Solvent: 78.0 parts by weight acetone • 1.5 parts by weight dimethylformamide • Emulsifier: alkylarylpolyglycol ether
# as §4
# Chinese cabbage (Brassica pekinensis) leaf disks infected with all instars of the green peach aphid (Myzus persicae), are sprayed with a preparation of the active ingredient of the desired concentration.
# as §3
# [8] = system: adult unfed cat fleas (Ctenocephalides felis); assay: Ctenocephalides felis oral test; conditions: 48 h
# Description: Ctenocephalides felis—Oral Test
# as §2
# To produce a suitable preparation of active compound, 10 mg of active compound are dissolved in 0.5 mL solvent, and the concentrate is diluted with cattle blood to the desired concentration.
# Approximately 20 adult unfed cat fleas (Ctenocephalides felis) are placed in flea chambers. The blood chamber, sealed with parafilm on the bottom, are filled with cattle blood supplied with compound solution and placed on the gauze covered top of the flea chamber, so that the fleas are able to suck the blood. The blood chamber is heated to 37° C. whereas the flea chamber is kept at room temperature.
# After 2 days mortality in % is determined. 100% means all the fleas have been killed; 0% means none of the fleas have been killed.
# [9] = system: larvae of the southern green stink bug (Nezara viridula); assay: Nezara viridula spray test; conditions: in Hordeum vulgare, 96 h
# Description: Nezara viridula—Spray Test • Solvent: 78.0 parts by weight of acetone • 1.5 parts by weight of dimethylformamide • Emulsifier: alkylarylpolyglycol ether
# as §4, with “solvent,” for “solvents”, “and the concentrate” for “and”
# Barley plants (Hordeum vulgare) are sprayed with a test solution containing the desired concentration of the active ingredient and are infested with larvae of the southern green stink bug (Nezara viridula).
# After 4 days mortality in % is determined. 100% means all the stink bugs have been killed; 0% means none of the stink bugs have been killed.
# [10] = system: adult flies Musca domestica strain WHO-N; assay: Musca domestica test (MUSCDO surface treatment & contact assay); conditions: surface concentration 20 mg/m^2, 30 min exposure, 24 hours after contact, read-out: efficacy (mortality)
# Description: Musca domestica Test (MUSCDO Surface Treatment & Contact Assay) • Solvent: Aceton+2000 ppm rapeseed oil methyl ester (RME)
# In order to produce a sufficient, active ingredient containing solution it is necessary to solve the test compound in the solvent-mix (acetone at 2 mg/ml/RME 2000 ppm). This solution is pipetted onto a glazed tile and after evaporation of the acetone, adult flies of the species Musca domestica strain WHO-N are placed onto the dried surface. The exposure time is 30 minutes.
# Mortality in percent (%) is determined 24 hours after contact of the insects to the treated surface. 100% mortality means that all tested insects are dead, whereas 0% means that no insect died.
compound,measurement,setting,value
Cc1nc([C@H](C)NC(=O)c2cc(Cl)cc(C(F)(F)F)c2)n(-c2ncc(C(=O)NCC3CC3)s2)n1 [I-67],pest or weed control at 5 µg/cm2,[1],100%
same,pest or weed control at 0.004 mg,[2],100%
same,"pest or weed control at 32 µg/disc, 100 g/ha",[3],100%
same,mortality at 4 ppm,[4],100%
same,mortality at 100 g/ha,[5],100%
Cc1nc([C@H](C)NC(=O)c2cc(Br)cc(C#N)c2)n(-c2ncc(C(=O)N(C)C)s2)n1 [I-70],pest or weed control at 5 µg/cm2,[1],70%
same,efficacy (fleas dead or moribund),[6],100%
Cc1nc([C@H](C)NC(=O)c2cc(Br)cc(Br)c2)n(-c2ncc(C(=O)N(C)C)s2)n1 [I-71],pest or weed control at 5 µg/cm2,[1],100%
same,efficacy (fleas dead or moribund),[6],100%
same,"pest or weed control at 32 µg/disc, 100 g/ha",[3],100%
Cc1nc([C@H](C)NC(=O)c2cncc(C(F)(F)F)c2)n(-c2ncc(C(=O)N(C)CC#N)s2)n1 [I-73],pest or weed control at 5 µg/cm2,[1],100%
same,mortality at 4 ppm,[4],100%
same,mortality at 100 g/ha,[7],90%
Cc1nc([C@H](C)NC(=O)c2cc(Cl)cc(S(=O)(=O)C3CC3)c2)n(-c2ncc(C(=O)N(C)CC#N)s2)n1 [I-74],mortality at 4 ppm,[4],100%
same,mortality at 100 g/ha,[7],90%
Cc1nc([C@H](C)NC(=O)c2cc(Cl)cc(S(C)(=O)=O)c2)n(-c2ncc(C(=O)N(C)C)s2)n1 [I-78],mortality at 4 ppm,[4],100%
Cc1nc([C@H](C)NC(=O)c2cc(Cl)cc(S(C)(=O)=O)c2)n(-c2ncc(C(=O)N(C)CC#N)s2)n1 [I-79],mortality at 4 ppm,[4],100%
Cc1nc([C@H](C)NC(=O)c2cc(Cl)cc(I)c2)n(-c2ncc(C(=O)N(C)CC#N)s2)n1 [I-81],pest or weed control at 5 µg/cm2,[1],100%
same,"pest or weed control at 32 µg/disc, 100 g/ha",[3],100%
same,mortality at 4 ppm,[4],100%
same,mortality at 100 g/ha,[5],100%
Cc1nc([C@H](C)NC(=O)c2cc(C(F)(F)F)cc(S(C)(=O)=O)c2)n(-c2ncc(C(=O)N(C)CC#N)s2)n1 [I-84],pest or weed control at 5 µg/cm2,[1],80%
same,pest or weed control at 0.004 mg,[2],100%
same,mortality at 100 ppm,[8],100%
same,"pest or weed control at 32 µg/disc, 100 g/ha",[3],100%
same,mortality at 4 ppm,[4],100%
same,mortality at 100 g/ha,[9],100%
C[C@H](NC(=O)c1cc(C(F)(F)F)cc(S(C)(=O)=O)c1)c1nc(C2CC2)nn1-c1ncc(C#N)s1 [I-103],"pest or weed control at 32 µg/disc, 100 g/ha",[3],100%
same,mortality at 500 g/ha,[9],90%
same,mortality at 100 g/ha,[5],100%
same,mortality at 20 mg/m2,[10],80 to 100%
